From patent publication EP4696688A1, “BENZO-FUSED RING COMPOUND INHIBITOR, AND PREPARATION METHOD THEREFOR AND USE THEREOF” (Shanghai Hansoh Biomedical Co., Ltd., priority 2023, dated 2024) come the findings set out here.

Series [1] concerns the target T1, human CYP11B2 (Homo sapiens, UniProt P19099).
T1 construct: The main elements of an expression plasmid include ORF of human CYP11B1 or human CYP11B2; expressed in transfected cells
T1 sequence (P19099 25-503): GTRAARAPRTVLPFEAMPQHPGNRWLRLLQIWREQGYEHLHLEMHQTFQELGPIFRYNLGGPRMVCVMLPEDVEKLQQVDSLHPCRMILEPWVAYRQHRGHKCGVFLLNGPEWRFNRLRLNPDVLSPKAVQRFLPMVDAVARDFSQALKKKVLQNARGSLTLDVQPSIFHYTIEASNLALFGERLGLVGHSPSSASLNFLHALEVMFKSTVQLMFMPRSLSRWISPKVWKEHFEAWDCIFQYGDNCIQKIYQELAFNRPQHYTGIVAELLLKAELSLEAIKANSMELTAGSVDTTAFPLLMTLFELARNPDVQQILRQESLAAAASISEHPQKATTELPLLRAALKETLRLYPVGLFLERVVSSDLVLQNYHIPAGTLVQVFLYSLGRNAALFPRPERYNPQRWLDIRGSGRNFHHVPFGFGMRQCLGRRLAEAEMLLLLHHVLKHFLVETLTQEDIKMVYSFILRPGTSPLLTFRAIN
Put plainly: G-402 cell enzyme experiment, CYP11B2 (aldosterone product, HTRF). Type of series: cell-based. The note with it: G-402 cells stably expressing human CYP11B2, 1 µM 11-deoxycorticosterone, 16 h. An excerpt: G-402 cell line was used as host cells to express (by transient or stable transfection) an enzyme of the human CYP11 family. Specifically, G-402 cell lines stably expressing human CYP11B1 and human CYP11B2 were established respectively. […] Therefore, the G-402 cell line is very suitable as a host cell for the ectopic expression of an enzyme of the CYP11 family.
The G-402 cell line, originally derived from renal myoblastoma, can be obtained from ATCC (CRL-1440). The main elements of an expression plasmid include ORF of human CYP11B1 or human CYP11B2, a suitable promoter (CMV promoter), and a suitable resistance marker (neomycin). The expression plasmid was transfected into G-402 cells by standard technology, and a specific antibiotic was then given for screening. The activity of the enzyme expressed by the screened monoclonal cells was assessed by 11-deoxycorticosterone (substrate of CYP11B2) and 11-deoxycortisol (substrate of CYP11B1).
The G-402 cells expressing CYP11 plasmid, as established in the above solution, were cultured in McCoy's 5a Modified Medium (ATCC Catalog No. 30-2007) containing 10% FCS and 400 µg/ml G418 in an incubator at 37°C and 5% CO2. A cell enzyme experiment was carried out using DMEM/F12 medium containing 2.5% charcoal-treated FBS and an appropriate concentration of a substrate (1 µM 11-deoxycorticosterone or 1 µM 11-deoxycortisol). In order to detect the activity of the enzyme in the cells, the cells were plated in a 96-well plate and incubated for 16 h. The supernatant was then transferred and analyzed for the concentration of the expected product (the product of CYP11B2: aldosterone; the product of CYP11B1: cortisol). The concentrations of these products were determined by an HTRF experiment of CisBio.
In the cell enzyme experiment, the inhibitory effect of the test compound on the generated product can reflect the inhibitory effect thereof on the enzyme. The dose-dependent inhibition of the enzyme activity by the compound was calculated by plotting the concentration of the test compound (x axis) versus the measured product level (y axis). Then, the original data was fitted to a 4-parameter sigmoidal function (Morgan-Mercer-Flodin, MMF model) by least square method: y = (AB + Cx^D) / (B + x^D) in which A is the maximum y value, B is the EC50 determined by XLFit, C is the minimum y value, and D is the slope value. The maximum value A corresponds to the amount of the product detected without an inhibitor, and C corresponds to the amount of the product detected in the G402 cells expressing an empty plasmid.
The EC50 value of the compound of the present invention was determined by the above G-402 experiment system. The activity of the CYP11B2 enzyme was determined under the conditions of 1 µM 11-deoxycorticosterone and a variable amount of the inhibitor, and the activity of the CYP11B1 enzyme was determined under the conditions of 1 µM 11-deoxycortisol and a variable amount of the inhibitor.

Series [2] in a line: Pharmacokinetic determination in rats. The note with it: rat, male SD rats, plasma, oral administration (PO) 5 mg/kg; for MRT inf: read-out: MRT0-∞. Type of series: in vivo. The method, then: SD rats were used as test animals to study the pharmacokinetic behavior of the compounds of the present invention in rats (plasma) after oral administration.
3 SD rats per group, male.
Formulation of drug for oral administration: 0.5% CMC-Na (1% Tween 80)
5 g of sodium carboxymethyl cellulose (CMC-Na, viscosity: 800-1200 Cps) was weighed and dissolved in 1000 mL of purified water, and 10 g of Tween 80 was added. These materials were uniformly mixed to form a clear solution.
The example compounds were weighed and dissolved in the solution and the mixture was shaken well and ultrasonicated for 15 min to obtain a colorless clear solution with a concentration of 0.5 mg/mL. Formulation of drug for intravenous administration: 5% DMSO + 10% Solutol HS15 + 85% PBS
After overnight fasting, 3 male SD rats per group were administered orally (PO) at a dose of 5 mg/kg with an administration volume of 10 mL/kg. […]
0.2 mL of blood was collected from the jugular vein of the experimental animals before administration and at 0.25 h, 0.5 h, 1.0 h, 2.0 h, 4.0 h, 6.0 h, 8.0 h, and 24.0 h after administration and placed in an EDTA-2K test tube, and the test tube was centrifuged at 8000 rpm for 6 min at 4°C to separate the plasma, which was stored at -80°C; and the animals were fed 4 h after administration.
3 Experimental results: The final determination results were obtained by using LCMS/MS method.

Series [3] concerns the target T2, human CYP11B1 (Homo sapiens, UniProt P15538).
T2 construct: The main elements of an expression plasmid include ORF of human CYP11B1 or human CYP11B2; expressed in transfected cells
T2 sequence (P15538 25-503): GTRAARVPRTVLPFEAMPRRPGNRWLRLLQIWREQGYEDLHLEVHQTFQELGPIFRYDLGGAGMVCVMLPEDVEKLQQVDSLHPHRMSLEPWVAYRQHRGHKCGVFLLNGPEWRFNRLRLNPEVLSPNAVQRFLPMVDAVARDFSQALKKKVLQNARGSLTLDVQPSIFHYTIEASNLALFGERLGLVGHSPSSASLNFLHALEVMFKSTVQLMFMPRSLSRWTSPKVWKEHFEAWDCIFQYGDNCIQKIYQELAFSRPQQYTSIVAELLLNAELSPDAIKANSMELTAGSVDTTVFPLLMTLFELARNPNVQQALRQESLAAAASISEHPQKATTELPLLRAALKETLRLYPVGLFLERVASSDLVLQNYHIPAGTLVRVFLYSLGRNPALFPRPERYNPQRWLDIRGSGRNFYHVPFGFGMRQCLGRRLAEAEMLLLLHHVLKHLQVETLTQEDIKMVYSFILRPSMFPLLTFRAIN
Put plainly: G-402 cell enzyme experiment, CYP11B1 (cortisol product, HTRF), selectivity versus CYP11B2. Type of series: cell-based. The note with it: human selective factor: ratio of CYP11B1 EC50 to CYP11B2 EC50; G-402 cells.

Molecules are shown by their SMILES. Bounds are passed on as bounds.

On to `COc1ccc2cc(-c3cncc(N4CC5(CN(C(=O)c6cnn(C)c6)C5)C4)c3)ccc2n1` [Example 23, (6-(5-(2-methoxyquinolin-6-yl)pyridin-3-yl)-2,6-diazaspiro[3.3]heptan-2-yl)(1-methyl-1H-pyrazol-4-yl)methanone], for which, in series [1], the EC50 is 9 nM. Besides, in series [2], the AUC(0-inf) was 33600 ng·h/mL, the AUC(0-t) stood at 33600 ng·h/mL, the highest level (Cmax) was 5720 ng/mL and the Tmax worked out at 2 h. In addition, in series [2], the half-life was 2.2 h and the MRT inf came out at 3.8 h. For the same compound, the hsF in series [3] is reported as above 22909x.
Turning to `CCC(=O)N[C@@H]1CCCc2c(-c3ccc4c(cnn4C)c3)cncc21` [Example 60, (R)-N-(4-(1-methyl-1H-indazol-5-yl)-5,6,7,8-tetrahydroisoquinolin-8-yl)propanamide], the EC50 in series [1] was determined as 69 nM. In series [2], the AUC(0-inf) was 22400 ng·h/mL, the exposure AUC(0-t) amounted to 21800 ng·h/mL, the highest level (Cmax) was 4900 ng/mL and the Tmax was found to be 2 h. Besides, in series [2], the half-life was 1.3 h and the MRT inf is 3.1 h. Further, in series [3], the hsF is reported as 170x.
In series [1], `[2H]C([2H])([2H])n1cc(C(=O)N2CC3(C2)CN(c2cncc(-c4ccc5nc(OC)ccc5c4)c2)C3)cn1` [Example 78, (6-(5-(2-methoxyquinolin-6-yl)pyridin-3-yl)-2,6-diazaspiro[3.3]heptan-2-yl)(1-(methyl-d3)-1H-pyrazol-4-yl)methanone] registered an EC50 of 24 nM. In addition, in series [2], the AUC(0-inf) came to 21600 ng·h/mL, the AUC(0-t) was 21600 ng·h/mL, the highest level (Cmax) was 3210 ng/mL and the Tmax is 4 h. Besides, in series [2], the half-life was 1.9 h and the MRT inf worked out at 4.7 h. Besides, the hsF in series [3] was above 8488x.
As to `COc1ccc2cc(-c3cncc(N4CC5(CN(C(=O)c6cnn(C)c6)C5)C4)n3)ccc2n1` [Example 79, (6-(6-(2-Methoxyquinolin-6-yl)pyrazin-2-yl)-2,6-diazaspiro[3.3]heptan-2-yl)(1-methyl-1H-pyrazol-4-yl)methanone], in series [1], the EC50 was determined as 12 nM. In addition, in series [2], the AUC(0-inf) turned out to be 16700 ng·h/mL, the AUC(0-t) was 16700 ng·h/mL, the Cmax worked out at 3160 ng/mL and the time to peak (Tmax) was determined as 4 h. Moreover, in series [2], the half-life is 2.8 h and the MRT inf stood at 4.5 h. Also, the hsF in series [3] was 3999x.
With `Cn1cc(C(=O)N2CC(Oc3cncc(-c4ccc5c(c4)sc(=O)n5C)c3)C2)cn1` [Example 91, 3-methyl-6-(5-((1-(1-methyl-1H-pyrazole-4-carbonyl)azetidin-3-yl)oxy)pyridin-3-yl)benzo[d]thiazol-2(3H)-one], the midpoint of the response in series [1], the EC50, lay at 12 nM. In series [2], the AUC(0-inf) turned out to be 18200 ng·h/mL, the AUC(0-t) is 18200 ng·h/mL, the Cmax was determined as 2560 ng/mL and the Tmax was 1 h. Moreover, in series [2], the half-life was 2.2 h and the MRT inf amounted to 4.2 h. For the same compound, in series [3], the hsF is listed as 2278x.
Take `COc1ccc2cc(-c3cncc(N4CC5(CN(C(=O)c6ccc(C)nc6)C5)C4)n3)ccc2n1` [Example 100, (6-(6-(2-methoxyquinolin-6-yl)pyrazin-2-yl)-2,6-diazaspiro[3.3]heptan-2-yl)(6-methylpyridin-3-yl)methanone]: the EC50 in series [1] stood at 9 nM. In series [2], the AUC(0-inf) is 22500 ng·h/mL, the area under the curve AUC(0-t) came to 20100 ng·h/mL, the Cmax was 3950 ng/mL and the Tmax was 2 h. In series [2], the half-life is 2 h and the MRT inf was 4.1 h. The hsF in series [3] amounted to 1048x.
In series [1], `Cn1cc(C(=O)N2CCC3(CC2)CN(c2cncc(-c4ccc5c(c4)sc(=O)n5C)c2)C3)cn1` [Example 103, 3-methyl-6-(5-(7-(1-methyl-1H-pyrazole-4-carbonyl)-2,7-diazaspiro[3.5]nonan-2-yl)pyridin-3-yl)benzo[d]thiazol-2(3H)-one] gave an EC50 of 26 nM. Also, in series [2], the AUC(0-inf) stood at 24700 ng·h/mL, the AUC(0-t) is 24700 ng·h/mL, the maximum concentration (Cmax) came out at 2700 ng/mL and the Tmax stood at 4 h. Moreover, in series [2], the half-life is 1.8 h and the MRT inf came out at 5.6 h. For the same compound, the hsF in series [3] came to 1292x.
